Laboratory results reported in patent publication US20080161246A1, “Cytochrome P450 Oxidase Inhibitors and Uses Thereof” (ABBOTT LABORATORIES, priority 2006, published 2008).

Biological target: T1, human microsomes containing CYP3A4 (Homo sapiens, UniProt P08684)
T1 construct: human microsomes containing CYP3A4; from tissue
Experiment: Protection of lopinavir from metabolism by human microsomes containing CYP3A4
Type: biochemical
Conditions: unmetabolized lopinavir after incubation with human microsomes containing CYP3A4; for % LPV Remaining (0.4 μM): compound at 0.4 μM; for % LPV Remaining (4 μM): compound at 4 μM
Protocol: The pharmacokinetics boosting effects of the compounds of the present invention were evaluated by measuring the compounds' protective effects on the metabolism of lopinavir, an HIV protease inhibitor. Lopinavir were mixed with human microsomes containing CYP3A4 in the presence of a compound of the invention. […] Significant pharmacokinetics boosting effects were also observed for some compounds at 0.4 μM (“% LPV Remaining (0.4 μM)”).

T1 sequence (P08684 whole entry): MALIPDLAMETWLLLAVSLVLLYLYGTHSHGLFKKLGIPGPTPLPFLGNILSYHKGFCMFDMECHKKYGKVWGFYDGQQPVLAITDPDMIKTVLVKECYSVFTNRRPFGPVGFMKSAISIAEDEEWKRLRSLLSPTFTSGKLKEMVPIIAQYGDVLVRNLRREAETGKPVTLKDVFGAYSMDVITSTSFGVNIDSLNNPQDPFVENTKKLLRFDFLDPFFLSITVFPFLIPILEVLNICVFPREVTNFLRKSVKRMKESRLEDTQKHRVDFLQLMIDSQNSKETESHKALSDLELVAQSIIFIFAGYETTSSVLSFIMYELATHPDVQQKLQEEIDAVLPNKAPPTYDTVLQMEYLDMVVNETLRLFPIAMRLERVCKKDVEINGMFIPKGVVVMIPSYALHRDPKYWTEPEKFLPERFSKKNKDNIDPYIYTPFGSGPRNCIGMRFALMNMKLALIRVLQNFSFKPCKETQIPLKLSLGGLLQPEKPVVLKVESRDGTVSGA

% LPV Remaining (0.4 μM) | % LPV Remaining (4 μM) | Structure (SMILES)
2% | 77% | CC(C)CN(CC(C)C)C(=O)[C@H](Cc1ccccc1)NC(=O)OCc1cncs1 [N,N-diisobutyl-N-[(1,3-thiazol-5-ylmethoxy)carbonyl]-L-phenylalaninamide]
1.9% | 78% | O=C(N[C@@H](Cc1ccccc1)C(=O)N(Cc1ccccc1)Cc1ccccc1)OCc1cncs1 [N,N-dibenzyl-N-[(1,3-thiazol-5-ylmethoxy)carbonyl]-L-phenylalaninamide]
1.8% | 83% | O=C(NC(Cc1ccccc1)C(=O)N(CCc1ccccc1)Cc1ccccc1)OCc1cncs1 [N-benzyl-N-(2-phenylethyl)-N-[(1,3-thiazol-5-ylmethoxy)carbonyl]-L-phenylalaninamide]
